These results are taken from paper PMC6151529, “Design, Synthesis and Biological Evaluation of N,N-Substituted Amine Derivatives as Cholesteryl Ester Transfer Protein Inhibitors” (Molecules : A Journal of Synthetic Chemistry and Natural …, 2017).

One assay relates to HDL-C levels. The note with it: clinical, cited from earlier work.
The next assay concerns LDL-C levels. The note with it: clinical, cited from earlier work.
Another assay concerns the target T1, CETP (Homo sapiens, UniProt P11597).
T1 construct: purchased Roar, New York, NY, USA RB-RPAK
T1 sequence (P11597 18-493): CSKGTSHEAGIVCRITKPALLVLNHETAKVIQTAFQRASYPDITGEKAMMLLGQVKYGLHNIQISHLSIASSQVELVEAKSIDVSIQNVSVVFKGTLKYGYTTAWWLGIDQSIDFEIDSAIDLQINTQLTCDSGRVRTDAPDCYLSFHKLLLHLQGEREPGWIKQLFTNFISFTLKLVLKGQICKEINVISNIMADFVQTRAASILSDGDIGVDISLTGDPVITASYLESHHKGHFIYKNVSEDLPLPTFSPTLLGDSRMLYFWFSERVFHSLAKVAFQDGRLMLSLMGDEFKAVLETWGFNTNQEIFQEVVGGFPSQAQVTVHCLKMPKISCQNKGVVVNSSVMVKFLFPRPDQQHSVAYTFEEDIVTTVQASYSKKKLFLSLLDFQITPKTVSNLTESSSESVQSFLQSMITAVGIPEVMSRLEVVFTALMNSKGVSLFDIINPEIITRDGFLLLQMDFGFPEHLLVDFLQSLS
As to the kind of experiment: CETP inhibitory activity, BODIPY-CE fluorescence assay (CETP RP Activity Assay Kit). The note with it: for IC50: read-out: IC50 (CETP inhibition); for CETP inhibition (in words): BODIPY-CE fluorescence assay. Format: biochemical. As for the experimental part: All tested compounds were dissolved in 100% DMSO, making sure the compound was dissolved totally. The solution was vibrated hard on an oscillator for more than 30 s and then stored in a nitrogen cabinet. The stock solutions (10 mM) were diluted with DMSO for an 8-point titration (1:5 serial dilutions) in a 96-well dilution plate. […] Compounds were tested at eight concentrations, and the fluorescence intensity were measured using a fluorometer (ExEm = 465/535 nm). The IC50 was determined from a curve fit of the data with each concentration tested three times.

Each structure is given as a SMILES string. Where only a bound is given, the exact number is not on record here.

In the case of `COc1cc(F)c(C(C)C)cc1-c1ccc(C(F)(F)F)cc1CN1C(=O)O[C@H](c2cc(C(F)(F)F)cc(C(F)(F)F)c2)[C@@H]1C` [Anacetrapib], the “raise of HDL-C levels” value with HDL-C levels (printed as 'to') is listed as 130%. Further, the “decrease of LDL-C levels” value in the assay on LDL-C levels (printed as 'to') is on record as 40%. For the compound `COc1ccc(C(C)C)cc1C1=C(CN(Cc2cc(C(F)(F)F)cc(C(F)(F)F)c2)c2nn[nH]n2)CC(C)(C)CC1` [Compound 12, N-(3,5-Bis(trifluoromethyl)benzyl)-N-((2-(5-isopropyl-2-methoxyphenyl)-5,5-dimethylcyclohex-1-enyl)-methyl)-2H-tetrazol-5-amine], the IC50 at CETP was found to be 2.84 ± 0.04 µM.

`COC(=O)Cn1nnc(N(CC2=C(c3cc(C(C)C)ccc3OC)CCC(C)(C)C2)Cc2cc(C(F)(F)F)cc(C(F)(F)F)c2)n1` [Compound 13]: at CETP, the IC50 is greater than 50 µM. As for `CCOC(=O)CCCn1nnc(N(CC2=C(c3cc(C(C)C)ccc3OC)CCC(C)(C)C2)Cc2cc(C(F)(F)F)cc(C(F)(F)F)c2)n1` [Compound 14, N-(3,5-Bis(trifluoromethyl)benzyl)-N-((2-(5-isopropyl-2-methoxyphenyl)-5,5-dimethylcyclohex-1-enyl)-methyl)-2H-tetrazol-5-amine-2-butyric acid ethyl ester], the IC50 at CETP was greater than 50 µM. For the compound `COc1ccc(C(C)C)cc1C1=C(CN(Cc2cc(C(F)(F)F)cc(C(F)(F)F)c2)c2nnn(CCN)n2)CC(C)(C)CC1` [Compound 15, 2-(2-Aminoethyl)-N-(3,5-Bis(trifluoromethyl)benzyl)-N-((2-(5-isopropyl-2-methoxyphenyl)-5,5-dimethyl-cyclohex-1-enyl)methyl)-2H-tetrazol-5-amine], at CETP, the 50% inhibitory concentration (IC50) came out at 1.92 ± 0.1 µM.

With `COc1ccc(C(C)C)cc1C1=C(CN(Cc2cc(C(F)(F)F)cc(C(F)(F)F)c2)c2nnn(CCS(C)(=O)=O)n2)CC(C)(C)CC1` [Compound 16, N-(3,5-Bis(trifluoromethyl)benzyl)-N-((2-(5-isopropyl-2-methoxyphenyl)-5,5-dimethylcyclohex-1-enyl)-methyl)-2-(2-(methylsulfonyl)ethyl)-2H-tetrazol-5-amine], on CETP, the IC50 is 1.2 ± 0.01 µM. Still for that read-out and setting: the result for `COc1ccc(C(C)C)cc1C1=C(CN(Cc2cc(C(F)(F)F)cc(C(F)(F)F)c2)c2nnn(CCCC(=O)O)n2)CC(C)(C)CC1` [Compound 18, N-(3,5-Bis(trifluoromethyl)benzyl)-N-((2-(5-isopropyl-2-methoxyphenyl)-5,5-dimethylcyclohex-1-enyl)-methyl)-2H-tetrazol-5-amine-2-butyric acid] reads 1.6 ± 0.02 µM. On to `COc1ccc(C(C)C)cc1C1=C(CN(Cc2cc(C(F)(F)F)cc(C(F)(F)F)c2)c2nnn(CCO)n2)CC(C)(C)CC1` [Compound 19, N-(3,5-Bis(trifluoromethyl)benzyl)-N-((2-(5-isopropyl-2-methoxyphenyl)-5,5-dimethylcyclohex-1-enyl)-methyl)-2H-tetrazol-5-amine-2-ethyl alcohol], for which, on CETP, the IC50 turned out to be 0.73 ± 0.09 µM. The same measure, in the same setting: the result for `COc1ccc(C(C)C)cc1C1=C(CN(Cc2cc(C(F)(F)F)cc(C(F)(F)F)c2)c2nnn(CCCCO)n2)CC(C)(C)CC1` [Compound 20] reads 5.76 ± 0.03 µM; that for `COc1ccc(C(C)C)cc1C1=C(CN(Cc2cc(C(F)(F)F)cc(C(F)(F)F)c2)c2nnn(CC(N)=O)n2)CC(C)(C)CC1` [Compound 21, 2-(5-((3,5-Bis(trifluoromethyl)benzyl)((2-(5-isopropyl-2-methoxyphenyl)-5,5-dimethylcyclohex-1-enyl)-methyl)amino)-2H-tetrazol-2-yl)acetamide], 20.06 ± 0.12 µM; that for `COc1ccc(C(C)C)cc1C1=C(CN(Cc2cc(C(F)(F)F)cc(C(F)(F)F)c2)c2noc(C)n2)CC(C)(C)CC1` [Compound 22, N-(3,5-Bis(trifluoromethyl)benzyl)-N-((2-(5-isopropyl-2-methoxyphenyl)-5,5-dimethylcyclohex-1-enyl)-methyl)-5-methyl-1,2,4-oxadiazol-3-amine], 0.72 ± 0.06 µM. Still for that read-out and setting: the result for `COc1ccc(C(C)C)cc1C1=C(CN(Cc2cc(C(F)(F)F)cc(C(F)(F)F)c2)C2CCN(CCO)CC2)CC(C)(C)CC1` [Compound 32, N-(3,5-Bis(trifluoromethyl)benzyl)-N-((2-(5-isopropyl-2-methoxyphenyl)-5,5-dimethylcyclohex-1-enyl)-methyl)piperidin-4-amine-1-ethyl alcohol] reads greater than 50 µM. `COc1ccc(C(C)C)cc1C1=C(CN(Cc2cc(C(F)(F)F)cc(C(F)(F)F)c2)C2CCN(CC(=O)O)CC2)CC(C)(C)CC1` [Compound 33, N-(3,5-Bis(trifluoromethyl)benzyl)-N-((2-(5-isopropyl-2-methoxyphenyl)-5,5-dimethylcyclohex-1-enyl)-methyl)piperidin-4-amine-1-acetic acid]: the IC50 on CETP is greater than 50 µM. Still for that read-out and setting: the result for `COc1ccc(C(C)C)cc1C1=C(CN(Cc2cc(C(F)(F)F)cc(C(F)(F)F)c2)C2CCN(C(=O)OC3CCOCC3)CC2)CC(C)(C)CC1` [Compound 34, N-(3,5-Bis(trifluoromethyl)benzyl)-N-((2-(5-isopropyl-2-methoxyphenyl)-5,5-dimethylcyclohex-1-enyl)-methyl)piperidin-4-amine-1-methanoic acid tetrahydro-2H-pyran-4-ol ester] reads greater than 50 µM; that for `CCOC(=O)N1CC(N(CC2=C(c3cc(C(C)C)ccc3OC)CCC(C)(C)C2)Cc2cc(C(F)(F)F)cc(C(F)(F)F)c2)C1` [Compound 35, N-(3,5-Bis(trifluoromethyl)benzyl)-N-((5′-isopropyl-2′-methoxy-4,4-dimethyl-3,4,5,6-tetrahydro-[1,1′-biphenyl]-2-yl)methyl)azetidin-3-amine-1-methanoic acid ethyl ester], greater than 50 µM.

On to `COc1ccc(C(C)C)cc1C1=C(CN(Cc2cc(C(F)(F)F)cc(C(F)(F)F)c2)C2CN(C(=O)OC(C)C)C2)CC(C)(C)CC1` [Compound 36, N-(3,5-Bis(trifluoromethyl)benzyl)-N-((5′-isopropyl-2′-methoxy-4,4-dimethyl-3,4,5,6-tetrahydro-[1,1′-biphenyl]-2-yl)methyl)azetidin-3-amine-1-methanoic acid isopropyl ester], for which the half-inhibitory concentration (IC50) at CETP is greater than 50 µM. With `COc1ccc(C(C)C)cc1C1=C(CN(Cc2cc(C(F)(F)F)cc(C(F)(F)F)c2)C2CN(C(=O)OC3CCOCC3)C2)CC(C)(C)CC1` [Compound 37, N-(3,5-Bis(trifluoromethyl)benzyl)-N-((5′-isopropyl-2′-methoxy-4,4-dimethyl-3,4,5,6-tetrahydro-[1,1′-biphenyl]-2-yl)methyl)azetidin-3-amine-1-methanoic acid tetrahydro-2H-pyran-4-ol ester], on CETP, the half-inhibitory concentration (IC50) was greater than 50 µM.

Consider `COc1ccc(C(C)C)cc1C1=C(CN(Cc2cc(C(F)(F)F)cc(C(F)(F)F)c2)c2nnn(C)n2)CC(C)(C)CC1` [Compound 40, N-(3,5-Bis(trifluoromethyl)benzyl)-N-((2-(5-isopropyl-2-methoxyphenyl)-5,5-dimethylcyclohex-1-enyl)-methyl)-2-methyl-2H-tetrazol-5-amine], for which the IC50 on CETP stood at 0.81 ± 0.03 µM. As for `COc1ccc(C(C)C)cc1C1=C(CN(Cc2cccc(C(F)(F)F)c2)c2nnn(C)n2)CC(C)(C)CC1` [Compound 41, N-((2-(5-Isopropyl-2-methoxyphenyl)-5,5-dimethylcyclohex-1-enyl)methyl)-2-methyl-N-(3-(trifluoromethyl)-benzyl)-2H-tetrazol-5-amine], the half-inhibitory concentration (IC50) on CETP worked out at 10.05 ± 0.06 µM. For `COc1ccc(C(C)C)cc1C1=C(CN(Cc2ccc(F)cc2)c2nnn(C)n2)CC(C)(C)CC1` [Compound 42, N-(4-Fluorobenzyl)-N-((2-(5-isopropyl-2-methoxyphenyl)-5,5-dimethylcyclohex-1-enyl)methyl)-2-methyl-2H-tetrazol-5-amine], at CETP, the “CETP inhibition (in words)” value is listed as “no CETP inhibition” and the IC50 is greater than 50 µM.

`COc1ccc(C(C)C)cc1C1=C(CN(Cc2ccc(C(F)(F)F)cc2)c2nnn(C)n2)CC(C)(C)CC1` [Compound 43, N-((2-(5-Isopropyl-2-methoxyphenyl)-5,5-dimethylcyclohex-1-enyl)methyl)-2-methyl-N-(4-(trifluoromethyl)-benzyl)-2H-tetrazol-5-amine]: at CETP, the “CETP inhibition (in words)” value was “no CETP inhibition” and the IC50 is greater than 50 µM. On the same counts, the results for `COc1ccc(C(C)C)cc1C1=C(CN(Cc2ccc(OC(F)(F)F)cc2)c2nnn(C)n2)CC(C)(C)CC1` [Compound 44, N-((2-(5-Isopropyl-2-methoxyphenyl)-5,5-dimethylcyclohex-1-enyl)methyl)-2-methyl-N-(4-(trifluoro-methoxy)benzyl)-2H-tetrazol-5-amine] are “no CETP inhibition” and greater than 50 µM.

As for `CCC(CC)CC1(C(=O)Nc2ccccc2SC(=O)C(C)C)CCCCC1` [Dalcetrapib], the “elevation of HDL-C levels” value in the assay on HDL-C levels is given as “up to 30%”. Also, the “effect on LDL-C levels” value in the assay on LDL-C levels is given as “minimal effect”.

With `Cc1cc(C)c2c(c1)[C@@H](N(Cc1cc(C(F)(F)F)cc(C(F)(F)F)c1)c1nnn(C)n1)CCCN2C[C@H]1CC[C@H](C(=O)O)CC1` [Evacetrapib], the “raising of HDL-C levels” value in the assay on HDL-C levels is “more than 129%”. Also, the “decrease of LDL-C” value with LDL-C levels is reported as “up to 36%”.
